# Values joined by “and” are separate entries in the source; they are usually repeats but may differ in a detail not shown here. Equal entries are not always repeated.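 Briefly, cells in 96-well plates were exposed to five compound concentrations for 48 h, and endpoints were estimated by linear interpolation. GI50: concentration for 50% inhibition of growth. TGI denotes the concentration required for complete inhibition of growth.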
# How the values were obtained:
# Assay in all cases: NCI tumour cell line growth inhibition, 48 h
# [1] = tested on: SK-MEL-28 melanoma
# [2] = tested on: SF-539 CNS
# [3] = tested on: COLO 205 colon
# [4] = tested on: OVCAR-5 ovarian
# [5] = tested on: A498 renal
# [6] = tested on: HCT-15 colon
# [7] = tested on: ACHN renal
# [8] = tested on: OVCAR-8 ovarian
# [9] = tested on: EKVX NSCLC
# [10] = tested on: U251 CNS
Compound,GI50 [1],TGI [1] [µM],GI50 [2],TGI [2],GI50 [3],TGI [3] [µM],GI50 [4],TGI [4] [µM],GI50 [5],TGI [5] [µM],GI50 [6],TGI [6],GI50 [7],TGI [7],GI50 [8],TGI [8] [µM],GI50 [9],TGI [9] [µM],GI50 [10],TGI [10]
CC(=O)OC[C@]12CC[C@H]3[C@@H](C[C@H]4O[C@]45[C@@H](O)C=CC(=O)[C@]35C)[C@@H]1CC[C@@H]2[C@H](C)[C@H]1CC(C)=C(C)C(=O)O1,0.526 µM and 0.381 µM,1.09,0.303 µM and 0.2 µM,0.73 µM and 0.452 µM,0.348 µM and 0.31 µM,0.91,0.883 µM and 1.21 µM,2.5,0.852 µM and 1.2 µM,2.77,0.294 µM and 0.177 µM,0.751 µM and 0.371 µM,0.498 µM and 0.515 µM,0.792 µM and 1.16 µM,0.331 µM and 0.285 µM,0.899,0.601 µM and 0.753 µM,1.94,0.688 µM and 0.742 µM,0.91 µM and 1.95 µM
COc1ccc(OC)c(/C=C/C(=O)N/N=C/c2ccc(Cl)cc2)c1,0.372 µM,> 100,0.157 µM,11.1 µM,0.0935 µM,0.599,15.3 µM,> 100,0.111 µM,36.6,0.0736 µM,> 100 µM,1.61 µM,> 100 µM,0.35 µM,> 100,0.704 µM,> 100,0.184 µM,1.49 µM
CCCCN=C(N)c1ccc(OCCSCCOc2ccc(C(N)=NCCCC)cc2)cc1,20 µM,> 100,5.59 µM,> 100 µM,3.1 µM,15,46.1 µM,> 100,15.2 µM,> 100,> 100 µM,> 100 µM,> 100 µM,> 100 µM,10.5 µM,> 100,0.96 µM,> 100,1.6 µM,> 100 µM
CCN1C(=O)CNc2ncc(-c3ccc(-c4ncn[nH]4)nc3C)nc21,0.115 µM,1.44,0.144 µM,0.859 µM,0.16 µM,1.72,0.169 µM,8.96,0.013 µM,0.0613,0.202 µM,10.9 µM,0.14 µM,2.16 µM,0.385 µM,5.23,0.188 µM,5.77,0.289 µM,9.64 µM
Cc1ccc(Nc2nc3c(s2)C(=O)c2ccccc2C3=O)c(C)c1,–,31.1,–,31.4 µM,–,35.2,–,34.8,–,> 100,–,41.5 µM,–,30.6 µM,–,35.2,–,33,–,42.5 µM
COc1ccc2c(c1)C=C([N+](=O)[O-])C(C1OC(C)(C)OC1C1COC(C)(C)O1)O2 (centres undefined),–,3.83,–,19.3 µM,–,30,–,20.7,–,33.3,–,5.2 µM,–,6.53 µM,–,11.4,–,21.2,–,9.83 µM
COc1cc(OC(=O)c2c(O)cc(O)c(O)c2C)cc(C)c1C(=O)Oc1cc(C)c(C(=O)O)c(O)c1,–,> 100,–,> 100 µM,–,> 100,–,> 100,–,> 100,–,> 100 µM,–,> 100 µM,–,> 100,–,> 100,–,> 100 µM
CC1CN1CC(O)C(O)CN1CC1C (centres undefined),17.5 µM,97.4,1.84 µM,45.4 µM,5.45 µM,> 38.5,13.4 µM,> 85.1,3.61 µM,16.8,4 µM,46 µM,0.395 µM,–,1.13 µM,> 71.2,13.8 µM,> 80.6,1.36 µM,> 64.8 µM
NCCCC[C@@H]1NC(=O)[C@H]2CCCN2C(=O)[C@H](Cc2ccccc2)NC(=O)[C@H](Cc2ccccc2)CNC1=O,> 100 µM,> 100,> 100 µM,> 100 µM,> 100 µM,> 100,> 100 µM,> 100,> 100 µM,> 100,> 100 µM,> 100 µM,> 100 µM,> 100 µM,> 100 µM,> 100,> 100 µM,> 100,> 100 µM,> 100 µM
C[N+](C)(C)CC1CCCC(C[N+](C)(C)C)C1=O (centres undefined),–,3.75,–,8.8 µM,–,0.923,–,7.73,–,20.2,–,0.874 µM,–,1.82 µM,–,1.15,–,3.95,–,10.3 µM

# — PubChem BioAssay (NCI)
